Two compounds from patent US7858825B2, “Acid and base stable diphenylmethanol derivatives and methods of use” (Colorado State University Research Foundation, priority 2007, dated 2010) can be followed below.

Series [1] can be described thus: Stability and cleavage of linker 16 esters. It is filed as physicochemical. How it is done: One of the linkers of the invention, (2-chloro-4-methoxyphenyl)(2,4-dichlorophenyl)methanol 16 was used to immobilize carboxylic acids. The linker was stable under a Boc-deprotection conditions (TsOH.H2O/THF—CH2Cl2). In addition, unlike photolytic (350 nm, 72 h) or Pd-mediated or base-catalyzed cleavage of linkers, the esters of linker 16 was efficiently be cleaved via volatile acids such as 30% TFA/CH2Cl2 or HF.pyridine within 1 h. The progress of each step was conveniently be monitored by LC-MS after the treatment of such Brønsted acids followed by evaporation of volatiles.

Series [2] in a line: Cleavage (deprotection) of the esters 4d and of trifluoroacetate 5a. It is filed as physicochemical. From the text: Thus, compounds of the invention enabled a wide range of organic reactions for the generation of libraries of MraY inhibitors in solution (Scheme III). Compounds of the invention, e.g., (2,6-dicholoro-4-methoxyphenyl)(2,4-dichlorophenyl)methanol, can also be used as linkers to immobilize carboxylic acids, amines, alcohols, as well as other functional groups which can, however, be cleaved by 20% TFA.
The trifluoroacetate 5a was also stable under most acidic conditions tested in Table 1 and SiO2, but could easily be cleaved by aq NH3 in THF-MeOH within 3 h to regenerate 3d in quantitative yield (Scheme 2-2).
The ester of 3d was dissolved in 20% TFA in CH2Cl2 (0.3 M) and kept for 1 h at rt. Volatiles were evaporated in vaccuo to provide the carboxylic acid and 5a. The carboxylic acid was separated from 5d by a silica gel plug (10:1, hexanes:EtOAc to 5:1, CHCl3:MeOH) or a back-extraction procedure [solvent system: EtOAc-water (for the extraction of 5d under a basic condition (NaHCO3), CHCl3-water (for the extraction of the carboxylic acid under an acidic condition (dil. HCl)].

On to `COc1ccc(C(O)c2ccc(Cl)cc2Cl)c(Cl)c1` (stereo not shown) [compound 16, (2-chloro-4-methoxyphenyl)(2,4-dichlorophenyl)methanol], for which the “time for cleavage of the esters of the linker” value in series [1] (30% TFA/CH2Cl2 or HF.pyridine) was not above 1 h. Further, in series [1] (Boc-deprotection conditions (TsOH.H2O/THF—CH2Cl2)), the stability of linker result is “stable”.
As for `COc1cc(Cl)c(C(OC(=O)C(F)(F)F)c2ccc(Cl)cc2Cl)c(Cl)c1` (stereo not shown) [5a, (2,6-dichloro-4-methoxyphenyl)(2,4-dichlorophenyl)methyl 2,2,2-trifluoroacetate], the “time for cleavage to regenerate 3d” value in series [2] (aq NH3 in THF-MeOH) is listed as not above 3 h. Moreover, the “stability under acidic conditions” value in series [2] (most acidic conditions tested in Table 1 and SiO2) is listed as “stable”.
